This passage reports IC50 and hydrolytic stability results from patent US8507411B2, “Neoglycorandomization and digitoxin analogs” (priority 2004, dated 2013).

Like-named read-outs stand apart in the source and are kept apart here. Bounds are passed on as bounds.

The IC50 is the concentration that gives 50% inhibition.

For one data set, the system named is Du145. The data set is described as follows: High-throughput calcein AM cytotoxicity assay, Du145. Type of data set: cell-based, human. The conditions noted are these: read-out: IC50, Du145. The text has this: (§1) Standard errors are depicted with error bars.
In another data set the test system is A549. The data set is described as follows: High-throughput calcein AM cytotoxicity assay, A549. Type of data set: cell-based, human. The conditions noted are these: read-out: IC50, A549.
Source text: as §1

Data set [1] in a line: Hydrolytic stability of the neoglycosidic linkage. Type of data set: physicochemical. The conditions noted are these: neutral or basic conditions (pH 7, pH 9), 3 mM in 1:1 DMSO/buffer, one month. The procedure: FIG. 4 is a graphic representation of the results of studies on the hydrolytic stability of neoglycoside 4α. The chemical stability of the neoglycosidic linkage was examined by monitoring the hydrolytic degradation of neoglycoside 4α in a 3 mM solution of 1:1 DMSO/buffer. Three buffers were used, 50 mM acetate buffer (pH 5), 50 mM phosphate buffer (pH 7), and 50 mM Tris buffer (pH 9). Neoglycoside degradation was monitored by reverse phase HPLC on an Agilent Zorbax Eclipse XDB-C8 column (4.6×150 mm) with a flow rate of 0.8 mL min^−1 and a linear gradient of 49% CH3OH/H2O to 89% CH3OH/H2O over 20 min. At t=0, neoglycoside 4α in 500 μL DMSO was added to 500 μL buffer, and the resulting solution was vortexed for 40 sec, then immediately injected onto the HPLC. Peak areas at 220 nm were used to estimate the neoglycoside/aglycon ratio, which is reported as “percent neoglycoside remaining” [Aneoglycoside/(Aneoglycoside+Aaglycon)] for each of the three buffer systems.
Hydrolytic Stability of 4α. The chemical stability of the neoglycosidic linkage was examined by monitoring the hydrolytic degradation of neoglycoside 4α in a 3 mM solution of 1:1 DMSO/buffer. Three buffers were used, 50 mM acetate buffer (pH 5), 50 mM phosphate buffer (pH 7), and 50 mM Tris buffer (pH 9). Neoglycoside degradation was monitored by reverse phase HPLC on an Agilent Zorbax Eclipse XDB-C8 column (4.6×150 mm) with a flow rate of 0.8 mL min^−1 and a linear gradient of 49% CH3OH/H2O to 89% CH3OH/H2O over 20 min. At t=0, neoglycoside 4α in 500 μL DMSO was added to 500 μL buffer, and the resulting solution was vortexed for 40 sec, then immediately injected onto the HPLC. Peak areas at 220 nm were used to estimate the neoglycoside/aglycon ratio, which is reported as “percent neoglycoside remaining” [Aneoglycoside/(Aneoglycoside+Aaglycon)] for each of the three buffer systems (see FIG. 4).
The chemical stability of the neoglycosidic linkage was examined by monitoring the hydrolytic degradation of neoglycoside 4α in a 3 mM solution of 1:1 DMSO/buffer using buffers at three different pHs.

The next data set relates to SKOV-3. As to the kind of experiment: Cell titer-glo cytotoxicity assay, SKOV-3. Type of data set: cell-based, human. The text has this: (§2) FIG. 7 is a graphical summary of the results of the IC50 data from cytotoxicity assays. […] In the assay, live cells are quantified by measuring the luminescent signal resulting from the reaction between cellular ATP and luciferin to form oxyluciferin. The IC50 value for each compound represents at least four replicates of dose-response experiments conducted over six concentrations at two-fold dilutions.
(§3) The anticancer activities of ten panel analogues (3a-c,e,f and 4a-c,e,f) and digitoxin (1) were assessed using a high-throughput cytotoxicity assay on four human cancer cell lines, (FIG. 7) representing lung, colorectal, and ovarian carcinomas, as well as NCI/ADR-RES, a drug-resistant ovarian carcinoma line (For years, NCI/ADR-RES cells have been misidentified as drug-resistant MCF-7 breast adenocarcinoma cells, but recently this line has been shown definitively to be a drug-resistant line derived from OVCAR-8 ovarian adenocarcinoma cells. Liscovitch, M. et al., Cancer Lett. (2007) 245, 350-352.
All cell lines were maintained as previously reported (Langenhan, J. M. et al., Proc. Natl. Acad. Sci. (2005) 102, 12305-12310.) Cells were harvested by trypsinization using 0.25% trypsin and 0.1% EDTA and then counted in a Cellometer Auto T4 cell counter (Nexcelom, inc), before dilution for assay plating. Cell plating, compound handling and assay set up were performed as previously reported^1 except for the cells were plated in 50 μL volumes in 384 well clear bottom, tissue culture plates (Corning-Costar, Inc). Compounds were added from the 384-well compound stock plates at a 1:100 dilution using a Biomek FX liquid handler equipped with a 384 channel head (Beckman Coulter, Inc.). Cell titer-glo reagent (15 μL) (Promega Corporation, Inc.) was added and incubated for 10 min at room temperature with gentle agitation to lyse the cells. Each plate was read for luminescence. […] IC50 values were determined using XLFit 4.0 as previously reported (see Table 7).

In a further data set the test system is HT-29. As to the kind of experiment: Cell titer-glo cytotoxicity assay, HT-29. Type of data set: cell-based, human. The settings on record: HT-29, Cell titer-glo.
Source text: as §2, §3
(§4) All cell lines were maintained as previously reported (Langenhan, J. M. et al., Proc. Natl. Acad. Sci. (2005) 102, 12305-12310.) Cells were harvested by trypsinization using 0.25% trypsin and 0.1% EDTA and then counted in a Cellometer Auto T4 cell counter (Nexcelom, inc), before dilution for assay plating. […] Each plate was read for luminescence. […]
On the technique in general: Cellular ATP, detected with luciferase, serves as a proxy for viable cell number.

The subject of the next data set is NCI-H460. As to the kind of experiment: Cell titer-glo cytotoxicity assay, NCI-H460. Type of data set: cell-based, human.
Source text: as §2, §3, §4

Where [2] appears, read: SKOV-3, Cell titer-glo, read-out: IC50.

Take `CON([C@H]1CC[C@@]2(C)[C@H](CC[C@@H]3[C@@H]2CC[C@]2(C)[C@@H](C4=CC(=O)OC4)CC[C@]32O)C1)[C@@H]1O[C@H](CO)[C@@H](O)[C@H](O)[C@@H]1O` [27β, D-mannoside]: the IC50 is 1300 nM in the data set with Du145 (Du145 cells) and 630 nM in the data set with A549 (A549 cells). Besides, the hydrolytic stability result in data set [1] is listed as “no hydrolytic degradation”.

As for `CON([C@H]1CC[C@@]2(C)[C@H](CC[C@@H]3[C@@H]2CC[C@]2(C)[C@@H](C4=CC(=O)OC4)CC[C@]32O)C1)[C@H]1OC[C@H](O)[C@H](O)[C@@H]1O` [5β, L-riboside], the IC50 with Du145 (Du145 cells) was 300 nM; in the data set on A549 (A549 cells), 33 nM; in the data set with SKOV-3 (setting [2]), more than 1000 nM; with HT-29, 80 nM.

For `CON([C@H]1CC[C@@]2(C)[C@H](CC[C@@H]3[C@@H]2CC[C@]2(C)[C@@H](C4=CC(=O)OC4)CC[C@]32O)C1)[C@H]1OC[C@H](O)[C@@H](O)[C@@H]1O` [23β, L-xyloside], the IC50 was 620 nM with Du145 (Du145 cells); 79 nM in the data set on A549 (A549 cells); more than 1000 nM with SKOV-3 (setting [2]); 55 nM in the data set with NCI-H460; 66 nM in the data set with HT-29.

As to `C[C@H]1O[C@@H](O[C@H]2[C@@H](O)C[C@H](O[C@H]3[C@@H](O)C[C@H](O[C@H]4CC[C@@]5(C)[C@H](CC[C@@H]6[C@@H]5CC[C@]5(C)[C@@H](C7=CC(=O)OC7)CC[C@]65O)C4)O[C@@H]3C)O[C@@H]2C)C[C@H](O)[C@@H]1O` [digitoxin], the IC50 is 260 nM in the data set on Du145 (Homo sapiens, DU-145, Du145 cells); 280 nM in the data set with A549 (Homo sapiens, A549, A549 cells); more than 1000 nM in the data set on SKOV-3 (Homo sapiens, SK-OV-3).
